# From patent US5314999A, “Derivatives of basic polyene macrolides and their preparation” (Laboratoires Mayoly-Spindler, priority 1989, dated 1994)
# Structures can show the parent of a compound that is named as a salt. Where two headings read alike, the source gives them in different places.
# What was measured:
# Type in all cases: cell-based
# [1] = tested on: PBL; experiment: Toxicity on nucleated cells, human PBL; settings: 90 min
# Method: (§1) B.2: Study of the toxicity on nucleated cells
# (§2) The solutions of the amphotericine B derivatives are prepared similarly to those mentioned in paragraph B.1.
# (§3) The cells are prepared by placing 20 ml of blood diluted to 1/2 with 0.9% NaCl into a tube together with 10 ml of Ficoll-hypaque, and the mixture is centrifuged at 2000 rpm for 30 minutes. The cell nuclei are recovered and washed twice with PBS buffer containing 5% of foetal calf serum.
# (§4) The cells are prepared by suspending 1.14×10^6 cells/ml in RPMI 1640 containing 2.5% of foetal calf serum and by filling each well with 150 μl. 50 μl of each dilution of the derivatives are added and also one control (5% glucose solution).
# (§5) The cells are then incubated in a steam cabinet at a CO2 concentration of 5% for 1 hour 30 at 37° C. or at ambient temperature.
# (§6) To evaluate the toxicity of the derivatives, a cell count in the presence of trypan blue is made, and the LD 50 (concentration of the derivative leading to a mortality of 50%) is calculated with respect to the control (5% glucose solution) for each concentration of each derivative.
# [2] = tested on: Aspergillus fumigatus; experiment: Diffusion method in agar-agar medium (Sabouraud agar-agar); settings: Sabouraud agar-agar, disc diameter 1 cm, 0.1 ml
# Method: (§7) A.2 : Study of the antibiotic efficiency of amphotericine B derivatives in agar-agar medium against Aspergillus
# (§8) The antibiotic activity was tested by the diffusion method in agar-agar medium (Sabouraud agar-agar).
# (§9) The efficiency of each molecule was determined by the size of the growth-inhibiting zone around a WHATMAN 3M paper disc impregnated with the antibiotic substance of a given concentration.
# (§10) A suspension of Aspergillus spores in a broth was prepared, 0.2 ml of this suspension was used to inoculate at its surface an agar-agar medium which was solidified in such a manner that a homogeneous growth layer was obtained. After spreading, the WHATMAN 3M paper discs (diameter: 1 cm) were placed on the surface of the agar-agar, and then impregnated with 0.1 ml of the antibiotic substance at different concentrations.
# [3] = tested on: Aspergillus flavus; experiment: as above; settings: Sabouraud agar-agar, disc diameter 1 cm, 0.1 ml
# Method: as §7, §8, §9, §10
# [4] = tested on: thymocytes; experiment: Toxicity on nucleated cells, mice thymocytes; settings: 1 hour 30, trypan blue, 90 min, read-out: LD 50 (concentration leading to a mortality of 50%)
# [5] = tested on: Candida albicans; experiment: Growth inhibition in liquid medium (Sabouraud broth); settings: Sabouraud broth, 28° C., 18 hours, read-out: IC 50 (growth-inhibiting concentration of 50%)
# Method: (§11) A.1 : Study of the antibiotic efficiency of AmB derivatives in liquid medium against different yeasts
# (§12) The antibiotic efficiency was tested by the growth inhibition method in liquid medium (Sabouraud broth) in the presence of different concentrations of the derivatives studied.
# (§13) A yeast suspension was cultivated in a broth in such a manner that about 1×10^2 cell/ml were obtained.
# (§14) The tubes containing the different concentrations of antifungal substance were inoculated with the same amount of yeast cells, and were then incubated at 28° C. for 18 hours with stirring. For each concentration of antifungal substance, two identical tubes were prepared.
# (§15) The inhibition of fungal growth corresponding to the different concentrations was evaluated for each molecule by spectrophotometry at 620 nm and expressed in percent with respect to a reference solution without antifungal substance.
# [6] = tested on: Saccharomyces cerevisiae; experiment: as above; settings: Sabouraud broth, 28° C., 18 hours, read-out: IC 50 (growth-inhibiting concentration of 50%)
# Method: as §11, §12, §13, §14, §15
# [7] = tested on: DAUDI (human lymphoma B); experiment: Toxicity on nucleated cells, DAUDI human lymphoma B; settings: 1 hour 30, trypan blue, 90 min, read-out: LD 50 (concentration leading to a mortality of 50%)
# [8] = tested on: red corpuscles; experiment: Toxicity on red corpuscles (lysis), mice; settings: 37° C., 1 hour 30, 90 min, read-out: LD 50 (dose which leads to lysis in 50% of the erythrocytes)
# Method: (§16) B.1: Study of the toxicity on red corpuscles
# (§17) All the solutions of the AmB derivatives according to the invention were prepared immediately before use by diluting 4 mg of substance in 100 μl of 5% glucose solution, and then, after 15 minutes protected from light, 100 μl of sterile distilled water are added, and the mixture is made up to stock solutions of 4 mg/ml with a 5% glucose solution. For comparative study of the effects of AmB, 4 mg of FUNGIZONE are diluted with 1 ml of 5% glucose.
# (§18) The cells are prepared by placing 1 ml of a peripheral blood sample into a tube together with Ficollhypaque to remove the lymphocytes, and then centrifuging the mixture at 2000 rpm for 20 minutes. The remaining red corpuscles are recovered, washed once with 0.9% NaCl and then twice with 150 Mm KCl, 0.5 Mm tris-HCl, pH 7.4.
# (§19) A 1.25% suspension is then prepared with 150 mM KCl solution, 0.5 mM tris-HCl, pH 7.4, and 150 μl thereof are distributed in wells along with 50 μl of each of the dilutions of the derivatives, plus a control well (5% glucose solution).
# (§20) The cells are then incubated at 37° C. in a steam cabinet for 1 hour 30.
# (§21) To evaluate the cell lysis, haemoglobin is essayed by removing 100 μl of the supernatant in each well and diluting the sample with 1 ml of distilled water.
# (§22) The haemoglobin concentration is calculated by measuring the optical density at 540 nm and taking into account the absorption of the derivatives of amphotericine B.
# (§23) LD 50 is the dose which leads to lysis in 50% of the erythrocytes (a control of 100% lysis is obtained with distilled water, and reference lysis of 0% is obtained with the 5% glucose solution).
# [9] = tested on: red corpuscles; experiment: Toxicity on red corpuscles (lysis), human; settings: 37° C., 1 hour 30, 90 min, 90 min, read-out: LD 50 (dose which leads to lysis in 50% of the erythrocytes)
# Method: as §16, §17, §18, §19, §20, §21, §22, §23
# [10] = tested on: X 63 (mice lymphoma B); experiment: Toxicity on nucleated cells, X 63 mice lymphoma B; settings: 1 hour 30, trypan blue, 90 min, read-out: LD 50 (concentration leading to a mortality of 50%)
# [11] = Toxicity on nucleated cells, human thymocytes; settings: 1 hour 30, trypan blue, read-out: LD 50 (concentration leading to a mortality of 50%)
# Method: as §1, §2, §3, §4, §5, §6
# [12] = Toxicity on nucleated cells, mice thymocytes; settings: mouse, thymocytes, 1 hour 30, trypan blue, read-out: LD 50 (concentration leading to a mortality of 50%)
# [13] = Toxicity on nucleated cells, mice T lymph gland cells; settings: mouse, 1 hour 30, trypan blue, read-out: LD 50 (concentration leading to a mortality of 50%)
# Method: as §1, §2, §3, §4, §5, §6
# [14] = Toxicity on nucleated cells, mice B lymph gland cells; settings: mouse, 1 hour 30, trypan blue, read-out: LD 50 (concentration leading to a mortality of 50%)
# Method: as §1, §2, §3, §4, §5, §6
# [15] = tested on: Cryptoccocus neoformans; experiment: Growth inhibition in liquid medium (Sabouraud broth); settings: Sabouraud broth, 28° C., 18 hours; read-out: IC 50 (growth-inhibiting concentration of 50%)
# Method: as §11, §12, §13, §14, §15
# [16] = tested on: Pytirosporum orbiculare; experiment: as above; settings: Sabouraud broth, 28° C., 18 hours; read-out: IC 50 (growth-inhibiting concentration of 50%)
# Method: as §11, §12, §13, §14, §15
# [17] = Toxicity on nucleated cells, human bone marrow; settings: 1 hour 30, trypan blue, read-out: LD 50 (concentration leading to a mortality of 50%)
# Method: as §1, §2, §3, §4, §5, §6
# [18] = human PBL, 1 hour 30, trypan blue, read-out: LD 50 (concentration leading to a mortality of 50%)
SMILES,concentration giving a growth inhibition of 1 cm around a disc in solid medium [2],concentration giving a growth inhibition of 1 cm around a disc in solid medium [3],CC50 [4],IC50 [5],IC50 [6],CC50 [7],HC50 [9],"CC50 [1, 18]",CC50 [10],IC50 [15],HC50 ([8]; 90 min),further results
C[C@@H]1[C@H](O)[C@@H](C)/C=C/C=C/C=C/C=C/C=C/C=C/C=C/[C@H](O[C@@H]2O[C@H](C)[C@@H](O)[C@H](NCC3(O)O[C@H](C(N)=O)[C@@H](O)[C@@H]3O)[C@@H]2O)C[C@@H]2O[C@](O)(C[C@@H](O)C[C@@H](O)[C@H](O)CC[C@@H](O)C[C@@H](O)CC(=O)O[C@H]1C)C[C@H](O)[C@H]2C(=O)O (stereo partly drawn) [Acetic acid NMG salt],,,,,,,,,,,,"CC50 ([1]; human PBLs, AmB 12 derivative, comparison of different catalysts (Table 4), read-out: LD 50 (the source's name)): 200 µM"
"C[C@@H]1[C@H](O)[C@@H](C)/C=C/C=C/C=C/C=C/C=C/C=C/C=C/[C@H](O[C@@H]2O[C@H](C)[C@@H](O)[C@H](NCC3(O)O[C@H](C(N)=O)[C@@H](O)[C@@H]3O)[C@@H]2O)C[C@@H]2O[C@](O)(C[C@@H](O)C[C@@H](O)[C@H](O)CC[C@@H](O)C[C@@H](O)CC(=O)O[C@H]1C)C[C@H](O)[C@H]2C(=O)O (stereo partly drawn) [AmB 12 G, 1-amino-1-deoxy-D-arabinoglucuronamidyl-AmB]",1 × 10^-4 molarity,9 × 10^-5 molarity,5 µM,0.1 µM,0.62 µM,> 300 µM,30 µM,46 µM,500 µM,,,HC50 [8]: 20 µM
"C[C@@H]1[C@H](O)[C@@H](C)/C=C/C=C/C=C/C=C/C=C/C=C/C=C/[C@H](O[C@@H]2O[C@H](C)[C@@H](O)[C@H](NCC3(O)O[C@H](C(=O)O)[C@@H](O)[C@@H]3O)[C@@H]2O)C[C@@H]2O[C@](O)(C[C@@H](O)C[C@@H](O)[C@H](O)CC[C@@H](O)C[C@@H](O)CC(=O)O[C@H]1C)C[C@H](O)[C@H]2C(=O)O (stereo partly drawn) [AmB 17 F, 1-amino-1-deoxy-D-arabinoglucuronyl-AmB]",2 × 10^-4 molarity,2 × 10^-4 molarity,,,,> 1000 µM,200 µM,> 1000 µM,> 1000 µM,0.15 µM,30 µM,"CC50 at 1.5 h [11]: > 300 µM; CC50 at 1.5 h [12]: 8 µM; CC50 at 1.5 h [13]: 20 µM; CC50 at 1.5 h [14]: 150 µM; IC50 ([5]; Candida albicans, 18 h): 0.13 µM; IC50 ([6]; Saccharomyces cerevisiae, 18 h): 1.4 µM; IC50 [16]: 0.09 µM; CC50 at 1.5 h [17]: > 1000 µM"
"C[C@@H]1[C@H](O)[C@@H](C)/C=C/C=C/C=C/C=C/C=C/C=C/C=C/[C@H](O[C@@H]2O[C@H](C)[C@@H](O)[C@H](NCC3(O)O[C@H](C(=O)O)[C@@H](O)[C@@H]3O)[C@@H]2O)C[C@@H]2O[C@](O)(C[C@@H](O)C[C@@H](O)[C@H](O)CC[C@@H](O)C[C@@H](O)CC(=O)O[C@H]1C)C[C@H](O)[C@H]2C(=O)O (stereo partly drawn) [AmB 17 G, 1-amino-1-deoxy-D-arabinoglucuronyl-AmB]",3.5 × 10^-5 molarity,9 × 10^-5 molarity,5 µM,,0.86 µM,300 µM,50 µM,10 µM,150 µM,0.06 µM,10 µM,
"C[C@@H]1[C@H](O)[C@@H](C)/C=C/C=C/C=C/C=C/C=C/C=C/C=C/[C@H](O[C@@H]2O[C@H](C)[C@@H](O)[C@H](NCC(=O)[C@@H](O)[C@@H]3OC(c4ccccc4)OC[C@H]3O)[C@@H]2O)C[C@@H]2O[C@](O)(C[C@@H](O)C[C@@H](O)[C@H](O)CC[C@@H](O)C[C@@H](O)CC(=O)O[C@H]1C)C[C@H](O)[C@H]2C(=O)O (stereo partly drawn) [AmB 20 G, 1-deoxy-1-amino-4,6O-benzylidene-D-fructosyl-AmB]",1.3 × 10^-4 molarity,6 × 10^-4 molarity,4 µM,0.1 µM,1 µM,500 µM,80 µM,30 µM,150 µM,0.06 µM,4 µM,
"CC1OC[C@@H](O)[C@H]([C@H](O)C(=O)CN[C@@H]2[C@H](O)[C@H](O[C@H]3/C=C/C=C/C=C/C=C/C=C/C=C/C=C/[C@H](C)[C@@H](O)[C@@H](C)[C@H](C)OC(=O)C[C@H](O)C[C@H](O)CC[C@@H](O)[C@H](O)C[C@H](O)C[C@]4(O)C[C@H](O)[C@@H](C(=O)O)[C@H](C3)O4)O[C@H](C)[C@H]2O)O1 (stereo partly drawn) [AmB 22 G, 1-deoxy-1-amino-4,6-O-ethylidene-D-fructosyl-AmB]",1 × 10^-4 molarity,9 × 10^-5 molarity,5 µM,0.09 µM,1.2 µM,700 µM,50 µM,30 µM,400 µM,0.12 µM,10 µM,
"CC(=O)NC[C@H]1OC(O)(CN[C@@H]2[C@H](O)[C@H](O[C@H]3/C=C/C=C/C=C/C=C/C=C/C=C/C=C/[C@H](C)[C@@H](O)[C@@H](C)[C@H](C)OC(=O)C[C@H](O)C[C@H](O)CC[C@@H](O)[C@H](O)C[C@H](O)C[C@]4(O)C[C@H](O)[C@@H](C(=O)O)[C@H](C3)O4)O[C@H](C)[C@H]2O)[C@@H](O)[C@@H]1O (stereo partly drawn) [AmB 23 G, 6-deoxy-6-N-acetyl-1-deoxy-1-amino-fructosyl-AmB]",9 × 10^-5 molarity,5 × 10^-4 molarity,2.5 µM,,1 µM,300 µM,1 µM,8 µM,500 µM,0.17 µM,4 µM,
